Data as given in patent US20250171430A1, “PYRAZOLYL COMPOUNDS AS KV7 CHANNEL ACTIVATORS” (Biohaven Therapeutics Ltd., priority 2022, published 2025).

Biological target: T1, Kv7.2/7.3 (Homo sapiens, UniProt O43525+O43526)
T1 construct: Kv7.2 tetracycline-induced, Kv7.3 constitutive
Test: Kv7.2/7.3 Activation Assay (Thallium Flux Assay)
Assay type: cell-based
Conditions: hKV7.2/7.3 cell line; test compound at single concentration of 10 μM; fluorescence at 90 sec normalized to positive control (retigabine, 30 μM)
From the text: The Thallium Flux Assay is used as a surrogate indicator of potassium channel activity.
The experimental protocol was adapted from the FluxOR™ II Green Potassium Ion Channel Assay User Guide (Pub. No. MAN0016084, Invitrogen). Conditions were optimized for the Kv7.2/7.3 cell line.
Cell Line: The hKV7.2/7.3 cell line was obtained from Chantest (cat. #CT6147).
Cell Culture: Kv7.2/7.3 cells were maintained in a media containing DMEM/F12; 50/50 (Fisher 11-330), 10% Fetal Bovine Serum (FBS) (Fisher 26-140), 100 units/mL Penicillin-Streptomycin (Fisher 15-140), 0.005 mg/ml Blasticidin (InvivoGen ant-bl-1), 0.5 mg/mL Geneticin (InvivoGen ant-gn-5), and 0.1 mg/mL Zeocin (Fisher R25001). One day prior to experimentation, cells were plated in 96 well clear bottom plates (Corning cat. #353219) in a media without Blasticidin, Geneticin, or Zeocin. In this cell line Kv7.3 channel expression is controlled by a constitutive promoter. Kv7.2 channel expression was induced by adding tetracycline (Sigma T7660) at a final concentration of 10 ng/mL overnight in a cell culture incubator at 37° C. and 5% CO2. On the day of assay, the cell culture medium in the 96-well plates was replaced by assay buffer containing the thallium-sensitive fluorescent sensor, FluxOR II Green prepared according to manufacturer's instructions. The 96-well plates were then incubated for 1 h at 37° C. Following the incubation, the FluxOR II Green-containing solution was replaced with extracellular solution.
Test Compound Plates: The test compound is diluted in a mixture of 0.1% DMSO/extracellular solution at a single concentration of 10 μM. Dilutions were made on a Biomek NXP (BECKMAN COULTER). Extracellular solution contained (in mM: 145 NaCl, 4 KCl, 2 CaCl2), 1 MgCl2, 10 HEPES, and 10 Glucose, pH 7.4).
Measurement and data analysis: Thallium-flux-mediated changes in intracellular fluorescence were made using a plate reader (Enspire, Perkin Elmer) set with an excitation wavelength of 475 nm and an emission wavelength of 530 nm. After a 15 sec baseline measurement, the stimulus buffer containing thallium and potassium was added to the 96-well plate containing FluxOR II Green-loaded cells and test compounds. Fluorescence values at 90 sec were normalized to the positive control (retigabine, 30 μM) and test compound activities were assigned categories according to the formula: “No Activity <0.15, “+” Moderate Activity 0.15-0.7, and “++” High Activity >0.7.

Row | SMILES | Kv7.2/7.3 Activity
1 | Cn1nc(NC(=O)CC2(C(F)(F)F)CC2)c(C2CCC2)c1-c1ccc(OC(F)(F)F)cc1 [Compound 31, N-(4-cyclobutyl-1-methyl-5-(4-(trifluoromethoxy)phenyl)-1H-pyrazol-3-yl)-2-(1-(trifluoromethyl)cyclopropyl)acetamide] | ++ (“++” High Activity ≥ 0.7)
2 | Cn1nc(NC(=O)C[C@@H]2CC(F)(F)C2(F)F)c(C2CCC2)c1C(F)(F)c1ccccc1 [Compound 32, (R)-N-(4-cyclobutyl-5-(difluoro(phenyl)methyl)-1-methyl-1H-pyrazol-3-yl)-2-(2,2,3,3-tetrafluorocyclobutyl)acetamide] | ++ (“++” High Activity ≥ 0.7)
3 | Cn1nc(NC(=O)C[C@H]2CC(F)(F)C2(F)F)c(C2CCC2)c1-c1ccc(OC(F)(F)F)cc1 [Compound 33, (S)-N-(4-cyclobutyl-1-methyl-5-(4-(trifluoromethoxy)phenyl)-1H-pyrazol-3-yl)-2-(2,2,3,3-tetrafluorocyclobutyl)acetamide] | ++ (“++” High Activity ≥ 0.7)
4 | Cn1nc(NC(=O)C[C@H]2CC(F)(F)C2(F)F)c(C2CCC2)c1-c1ccc(C(C)(C)O)cc1 [Compound 34, (S)-N-(4-cyclobutyl-5-(4-(2-hydroxypropan-2-yl)phenyl)-1-methyl-1H-pyrazol-3-yl)-2-(2,2,3,3-tetrafluorocyclobutyl)acetamide] | + (“+” Moderate Activity 0.15-0.7)
5 | Cn1nc(NC(=O)C[C@H]2CC(F)(F)C2(F)F)c(C2CCC2)c1-c1ccc(C(F)(F)F)cn1 [Compound 35, (S)-N-(4-cyclobutyl-1-methyl-5-(5-(trifluoromethyl)pyridin-2-yl)-1H-pyrazol-3-yl)-2-(2,2,3,3-tetrafluorocyclobutyl)acetamide] | + (“+” Moderate Activity 0.15-0.7)
6 | Cn1nc(NC(=O)CC2(C(F)(F)F)CC2)c(C2CCC2)c1-c1ccc(C(F)(F)F)cn1 [Compound 36, N-(4-cyclobutyl-1-methyl-5-(5-(trifluoromethyl)pyridin-2-yl)-1H-pyrazol-3-yl)-2-(1-(trifluoromethyl)cyclopropyl)acetamide] | − (“−” No Activity < 0.15)
7 | Cn1nc(NC(=O)C[C@@H]2CC(F)(F)C2(F)F)c(CC(F)(F)F)c1-c1ccccc1 [Compound 37, (R)-N-(1-methyl-5-phenyl-4-(2,2,2-trifluoroethyl)-1H-pyrazol-3-yl)-2-(2,2,3,3-tetrafluorocyclobutyl)acetamide] | ++ (“++” High Activity ≥ 0.7)
8 | Cn1nc(NC(=O)C[C@H]2CC(F)(F)C2(F)F)c(CC(F)(F)F)c1-c1ccccc1 [Compound 38, (S)-N-(1-methyl-5-phenyl-4-(2,2,2-trifluoroethyl)-1H-pyrazol-3-yl)-2-(2,2,3,3-tetrafluorocyclobutyl)acetamide] | ++ (“++” High Activity ≥ 0.7)
9 | Cn1nc(NC(=O)C[C@H]2CC(F)(F)C2(F)F)c(C2CCC2)c1C(F)(F)c1ccccc1 [Compound 39, (S)-N-(4-cyclobutyl-5-(difluoro(phenyl)methyl)-1-methyl-1H-pyrazol-3-yl)-2-(2,2,3,3-tetrafluorocyclobutyl)acetamide] | ++ (“++” High Activity ≥ 0.7)
10 | Cn1nc(NC(=O)C[C@H]2CC(F)(F)C2(F)F)c(C2CC(F)(F)C2)c1-c1ccc(OC(F)(F)F)cc1 [Compound 40, (S)-N-(4-(3,3-difluorocyclobutyl)-1-methyl-5-(4-(trifluoromethoxy)phenyl)-1H-pyrazol-3-yl)-2-(2,2,3,3-tetrafluorocyclobutyl)acetamide] | ++ (“++” High Activity ≥ 0.7)
11 | Cn1nc(NC(=O)CC2(C(F)(F)F)CC2)c(C2CC(F)(F)C2)c1-c1ccc(OC(F)(F)F)cc1 [Compound 42, N-(4-(3,3-difluorocyclobutyl)-1-methyl-5-(4-(trifluoromethoxy)phenyl)-1H-pyrazol-3-yl)-2-(1-(trifluoromethyl)cyclopropyl)acetamide] | + (“+” Moderate Activity 0.15-0.7)
12 | Cn1nc(NC(=O)CC(C)(C)C2CC2)c(C2CC(F)(F)C2)c1-c1ccc(OC(F)(F)F)cc1 [Compound 43, 3-cyclopropyl-N-(4-(3,3-difluorocyclobutyl)-1-methyl-5-(4-(trifluoromethoxy)phenyl)-1H-pyrazol-3-yl)-3-methylbutanamide] | + (“+” Moderate Activity 0.15-0.7)
13 | Cn1nc(NC(=O)C[C@@H]2CC(F)(F)C2(F)F)c(C2CCC2)c1C(=O)c1ccccc1 [Compound 44, (R)-N-(5-benzoyl-4-cyclobutyl-1-methyl-1H-pyrazol-3-yl)-2-(2,2,3,3-tetrafluorocyclobutyl)acetamide] | ++ (“++” High Activity ≥ 0.7)
14 | N#CCn1nc(NC(=O)C[C@@H]2CC(F)(F)C2(F)F)c(C2CCC2)c1-c1ccc(F)cc1 [Compound 45, (R)-N-(1-(cyanomethyl)-4-cyclobutyl-5-(4-fluorophenyl)-1H-pyrazol-3-yl)-2-(2,2,3,3-tetrafluorocyclobutyl)acetamide] | ++ (“++” High Activity ≥ 0.7)
15 | N#CCn1nc(NC(=O)C[C@H]2CC(F)(F)C2(F)F)c(C2CCC2)c1-c1ccc(F)cc1 [Compound 46, (S)-N-(1-(cyanomethyl)-4-cyclobutyl-5-(4-fluorophenyl)-1H-pyrazol-3-yl)-2-(2,2,3,3-tetrafluorocyclobutyl)acetamide] | + (“+” Moderate Activity 0.15-0.7)
16 | Cn1nc(NC(=O)C[C@@H]2CC(F)(F)C2(F)F)c(C2CCC2)c1-c1cccc(C(C)(C)O)c1 [Compound 47, (R)-N-(4-cyclobutyl-5-(3-(2-hydroxypropan-2-yl)phenyl)-1-methyl-1H-pyrazol-3-yl)-2-(2,2,3,3-tetrafluorocyclobutyl)acetamide] | + (“+” Moderate Activity 0.15-0.7)
17 | Cn1nc(NC(=O)C[C@H]2CC(F)(F)C2(F)F)c(C2CCC2)c1-c1cccc(C(C)(C)O)c1 [Compound 48, (S)-N-(4-cyclobutyl-5-(3-(2-hydroxypropan-2-yl)phenyl)-1-methyl-1H-pyrazol-3-yl)-2-(2,2,3,3-tetrafluorocyclobutyl)acetamide] | + (“+” Moderate Activity 0.15-0.7)
18 | Cn1nc(NC(=O)CC(C)(C)C(F)(F)F)c(C2CCC2)c1-c1cnc(C(F)(F)F)s1 [Compound 49, N-(4-cyclobutyl-1-methyl-5-(2-(trifluoromethyl)thiazol-5-yl)-1H-pyrazol-3-yl)-4,4,4-trifluoro-3,3-dimethylbutanamide] | + (“+” Moderate Activity 0.15-0.7)
19 | Cn1nc(NC(=O)CC2(C(F)(F)F)CC2)c(C2CCC2)c1-c1cnc(C(F)(F)F)s1 [Compound 50, N-(4-cyclobutyl-1-methyl-5-(2-(trifluoromethyl)thiazol-5-yl)-1H-pyrazol-3-yl)-2-(1-(trifluoromethyl)cyclopropyl)acetamide] | − (“−” No Activity < 0.15)
20 | Cn1nc(NC(=O)C2C(C)(C)C2(C)C)c(C2CCC2)c1-c1ccc(OC(F)(F)F)cc1 [Compound 51, N-(4-cyclobutyl-1-methyl-5-(4-(trifluoromethoxy)phenyl)-1H-pyrazol-3-yl)-2,2,3,3-tetramethylcyclopropane-1-carboxamide] | + (“+” Moderate Activity 0.15-0.7)
21 | Cn1nc(NC(=O)[C@H]2C(C)(C)C2(F)F)c(C2CCC2)c1-c1ccc(OC(F)(F)F)cc1 [Compound 52, (R)-N-(4-cyclobutyl-1-methyl-5-(4-(trifluoromethoxy)phenyl)-1H-pyrazol-3-yl)-2,2-difluoro-3,3-dimethylcyclopropane-1-carboxamide] | + (“+” Moderate Activity 0.15-0.7)
22 | Cn1nc(NC(=O)C[C@@H]2CC(F)(F)C2(F)F)c(C2CCC2)c1-c1ccc(S(C)(=O)=O)cc1 [Compound 53, (R)-N-(4-cyclobutyl-1-methyl-5-(4-(methylsulfonyl)phenyl)-1H-pyrazol-3-yl)-2-(2,2,3,3-tetrafluorocyclobutyl)acetamide] | − (“−” No Activity < 0.15)
23 | Cn1nc(NC(=O)C[C@H]2CC(F)(F)C2(F)F)c(C2CCC2)c1-c1ccc(S(C)(=O)=O)cc1 [Compound 54, (S)-N-(4-cyclobutyl-1-methyl-5-(4-(methylsulfonyl)phenyl)-1H-pyrazol-3-yl)-2-(2,2,3,3-tetrafluorocyclobutyl)acetamide] | − (“−” No Activity < 0.15)
24 | Cn1nc(NC(=O)CC(C)(C)O)c(C2CCC2)c1-c1ccc(OC(F)(F)F)cc1 [Compound 55, N-(4-cyclobutyl-1-methyl-5-(4-(trifluoromethoxy)phenyl)-1H-pyrazol-3-yl)-3-hydroxy-3-methylbutanamide] | + (“+” Moderate Activity 0.15-0.7)
